This data set can be described thus: Interaction between CDDP and ADH or hydrazine by OPDA colour reaction (FIGS. 4A-4B). It is filed as physicochemical. Particulars: 6 μg CDDP, OPDA 4 mg/ml. How it is done:
The absorbance at 703 nm was determined (FIG. 4A).

This note sets out measurements from US6694171B1, “X-ray imaging of tumors with dextran carrier of platinum compounds” (Yeda Research and Development, priority 1997, dated 2004).

As to `NNC(=O)CCCCC(=O)NN` [ADH, adipic acid dihydrazide], the “leveling-off ratio ligand:CDDP” value is 20.
